According to patent US20070190523A1 (priority 2002, published 2007):
Where two headings read alike, the source gives them in different places.

Legend:
[1] = molecular target: recombinant HIV-1 protease (Human immunodeficiency virus type 1 group M subtype B, UniProt P04585); assay: biochemical; assay type: biochemical
[2] = tested on: mutant HIV-1 with I84V/L90M mutations; assay type: cell-based
[3] = tested on: wild-type HIV-1 strain IIIB; assay: microbe, parasite or virus in culture; assay type: cell-based; details: read-out: EC50
84V90M [4] = molecular target: T1, 84V90M (Human immunodeficiency virus type 1 group M subtype B, UniProt P04585, I572V/L578M); assay: cell-based; set-up: species or system HIV
46I50V = assay: microbe, parasite or virus in culture; assay type: cell-based, HIV
48V54V82A = assay: microbe, parasite or virus in culture; assay type: cell-based, HIV
48V54V82S = assay: microbe, parasite or virus in culture; set-up: species or system HIV; details: Human immunodeficiency virus 1, read-out: Cell-based assay (MT-4) EC50/nM 48V54V82S
48V82A90M = assay: microbe, parasite or virus in culture; set-up: species or system HIV; details: Human immunodeficiency virus 1, read-out: Cell-based assay (MT-4) EC50/nM 48V82A90M
WT [5] = molecular target: T2, WT (Human immunodeficiency virus type 1 group M subtype B, UniProt P04585); assay: cell-based; set-up: species or system HIV
WT [6] = molecular target: T2, WT; assay: biochemical; set-up: species or system HIV
30N82I88D = assay: microbe, parasite or virus in culture; assay type: cell-based, HIV
84V90M [7] = molecular target: T1, 84V90M; assay: biochemical; assay type: biochemical, HIV
84V90M [8] = molecular target: T1, 84V90M; assay: Cell-based assay (MT-4) EC50, 84V90M; set-up: species or system HIV-1
[9] = tested on: recombinant HIV-1 strains with resistance mutations in the protease gene; assay: Cross-Resistance Profile Assay, whole panel; assay type: cell-based
WT [10] = tested on: WT; set-up: species or system HIV-1; details: read-out: Cell-based assay (MT-4) EC50/nM WT
[11] = tested on: recombinant HIV-1 46I/84A; assay: Cross-Resistance Profile Assay; assay type: cell-based
[12] = tested on: recombinant HIV-1 10R/46I/82T/84V; assay: Cross-Resistance Profile Assay; assay type: cell-based
[13] = tested on: recombinant HIV-1 10I/84V/71V/73S/90M; assay: Cross-Resistance Profile Assay; assay type: cell-based
[14] = tested on: recombinant HIV-1 10F/46I/71V/82T/90M; assay: Cross-Resistance Profile Assay; assay type: cell-based
[15] = tested on: recombinant HIV-1 10I/48V/71V/82A/90M; assay: Cross-Resistance Profile Assay; assay type: cell-based
[16] = tested on: recombinant HIV-1 46I/47V/50V; assay: Cross-Resistance Profile Assay; assay type: cell-based
[17] = tested on: recombinant HIV-1 48V/54V/71V/82S; assay: Cross-Resistance Profile Assay; assay type: cell-based
84V90M [18] = molecular target: T1, 84V90M; assay type: biochemical, HIV-1; details: 84V90M enzyme; read-out: Enzymatic assay 84V90M IC50/nM
[19] = tested on: recombinant HIV-1 54V/71V/82S; assay: Cross-Resistance Profile Assay; assay type: cell-based
[20] = tested on: recombinant HIV-1 30N/50S/82I/88D; assay: Cross-Resistance Profile Assay; assay type: cell-based
[21] = tested on: recombinant HIV-1 10I/48V/54V/82A; assay: Cross-Resistance Profile Assay; assay type: cell-based
[22] = Human immunodeficiency virus 1, read-out: Cell-based assay (MT-4) EC50/nM 30N82I88D
[23] = MT-4, 84V90M, read-out: Cell-based assay (MT-4) EC50/nM 84V90M
[24] = Enzymatic assay, 84V90M, read-out: 84V90M IC50/nM

Q: `CCOC(=O)C(C)OP(=O)(Cc1ccc(N(C)CC(NC(=O)OC2COC3OCCC23)C(O)CN(CC(C)C)S(=O)(=O)c2ccc(OC)cc2)cc1)Oc1ccccc1` (stereo not drawn) was tested. Which Ki ([1]; read-out: Ki) did it give?
A: 0.01 to 0.1 nM

Q: And the I84V/L90M fold change ([2]; I84V/L90M mutant)?
A: +++ (>30)

Q: What about the EC50 [3] of the same compound?
A: 500 to 5000 nM

Q: `Cc1cccc(C)c1OCC(=O)N[C@@H](Cc1ccc(OCP(=O)(Oc2ccccc2)Oc2ccccc2)cc1)[C@H](O)CN(CC(C)C)S(=O)(=O)c1ccc(N)cc1` was tested. Which Ki ([1]; read-out: Ki) did it give?
A: 0.01 to 0.1 nM

Q: Which results are given for `CCOP(=O)(CCCNC(=O)c1cccc(CN2C(=O)N(Cc3ccc(O)cc3)C(Cc3ccccc3)C(O)C(O)C2Cc2ccccc2)c1)OCC` (stereo not drawn)?
A: EC50 (84V90M [4]): 311 nM; EC50 (46I50V; Human immunodeficiency virus 1, read-out: Cell-based assay (MT-4) EC50/nM 46I50V): 85 nM; Ki ([1]; Ki (nM)): 0.009 nM; EC50 (48V54V82A; Human immunodeficiency virus 1, read-out: Cell-based assay (MT-4) EC50/nM 48V54V82A): 80 nM; EC50 (48V54V82S): 75 nM; EC50 (48V82A90M): 74 nM; EC50 (WT [5]): 65 nM; IC50 (WT [6]): 1.1 nM; EC50 (30N82I88D; [22]): 74 nM; IC50 (84V90M [7]): 12 nM

Q: Which EC50 (84V90M [8]) does the source give for `O=C1N(Cc2ccccc2)C(Cc2ccccc2)C(O)C(O)C(Cc2ccc(OCP(=O)(OCc3ccccc3)OCc3ccccc3)cc2)N1Cc1ccccc1` (stereo not drawn) here?
A: > 6000 nM

Q: Which results are given for `CCCCOC(=O)C(C)NP(=O)(COc1ccc(CC(NC(=O)OC2COC3OCCC23)C(O)CN(CC(C)C)S(=O)(=O)c2ccc(OC)cc2)cc1)NC(C)C(=O)OCCCC` (stereo not drawn) [GS-16503]?
A: Total No. of Resistant Viruses ([9]; resistance = 5-fold and higher change in EC50 relative to wild type, 11 mutant viruses): 0; increase of conversion to acid metabolites at 1 μM vs. 10 μM (MT-2 cells): 3 fold

Q: How did the EC50 (WT [10]) turn out when `O=C1N(Cc2ccccc2)C(Cc2ccccc2)C(O)C(O)C(Cc2ccc(O)cc2)N1Cc1ccccc1` (stereo not drawn) [H / Ph / OH] was run?
A: 1260 nM

Q: How did the “Fold Change in EC50 Relative to WT HIV-1” value [11] turn out when `Cc1cccc(C)c1OCC(=O)N[C@@H](Cc1ccccc1)[C@@H](O)C[C@H](Cc1ccccc1)NC(=O)[C@H](C(C)C)N1CCCNC1=O` [Lopinavir] was run?
A: 9 fold

Q: And the “Fold Change in EC50 Relative to WT HIV-1” value [12]?
A: 11 fold

Q: What about the “Fold Change in EC50 Relative to WT HIV-1” value [13] of the same compound?
A: 11 fold

Q: And the “Fold Change in EC50 Relative to WT HIV-1” value [14]?
A: 7.5 fold

Q: And the “Fold Change in EC50 Relative to WT HIV-1” value [15]?
A: 4.5 fold

Q: And the “Total No. of Resistant Viruses” value ([9]; {})?
A: 6

Q: What about the “Fold Change in EC50 Relative to WT HIV-1” value [16] of the same compound?
A: 19 fold

Q: What about the “Fold Change in EC50 Relative to WT HIV-1” value [17] of the same compound?
A: 60 fold

Q: Which results are given for `CCOP(=O)(COCCCN1C(=O)N(Cc2ccc3[nH]nc(N)c3c2)C(Cc2ccccc2)C(O)C(O)C1Cc1ccccc1)OCC` (stereo not drawn) [OCH2PO3Et2]?
A: EC50 (46I50V; MT-4, 46I50V, read-out: Cell-based assay (MT-4) EC50/nM 46I50V): 138 nM; EC50 (48V54V82A; MT-4, 48V54V82A, read-out: Cell-based assay (MT-4) EC50/nM 48V54V82A): 175 nM; EC50 (WT [5]; MT-4, WT, read-out: Cell-based assay (MT-4) EC50/nM WT): 356 nM; EC50 (30N82I88D; MT-4, 30N82I88D, read-out: Cell-based assay (MT-4) EC50/nM 30N82I88D): 145 nM

Q: For `CCOP(=O)(CCNC(=O)Oc1ccc(CC2C(O)C(O)C(Cc3ccc(OC)cc3)N(Cc3cccc(N)c3)C(=O)N2Cc2cccc(N)c2)cc1)OCC` (stereo not drawn) [OCH3 / Ph-mNH2 / OCONH(CH2)2PO3Et2], which EC50 (84V90M [8]) is on record?
A: 2260 nM

Q: What about the IC50 (84V90M [18]) of the same compound?
A: 116 nM

Q: For `CCOP(=O)(CCNC(=O)Oc1ccc(CC2C(O)C(O)C(Cc3ccc(OC)cc3)N(Cc3ccc(O)cc3)C(=O)N2Cc2ccc(O)cc2)cc1)OCC` (stereo not drawn) [OCH3 / Ph-pOH / OCONH(CH2)2PO3Et2], which EC50 (84V90M [8]) is on record?
A: 495 nM

Q: For `CCOP(=O)(COc1ccc(CC2C(O)C(O)C(Cc3ccc(O)cc3)N(Cc3ccc(O)cc3)C(=O)N2Cc2ccc(O)cc2)cc1)OCC` (stereo not drawn) [OH, Ph-pOH, OCH2PO3Et2], which EC50 (84V90M [4]; [23]) is on record?
A: 1910 nM

Q: What about the EC50 (WT [5]) of the same compound?
A: 285 nM

Q: What does the source list for `CCC[C@@]1(CCc2ccccc2)CC(O)=C([C@H](CC)c2cccc(NS(=O)(=O)c3ccc(C(F)(F)F)cn3)c2)C(=O)O1` [Tipranavir]?
A: Fold Change in EC50 Relative to WT HIV-1 [11]: 1 fold; Fold Change in EC50 Relative to WT HIV-1 [19]: 3.5 fold; Fold Change in EC50 Relative to WT HIV-1 [12]: 5 fold; Fold Change in EC50 Relative to WT HIV-1 [14]: 3 fold; Fold Change in EC50 Relative to WT HIV-1 [20]: 0.5 fold; Fold Change in EC50 Relative to WT HIV-1 [15]: 0.3 fold; I84V/L90M fold change ([2]; fold difference in EC50 vs wild type, class symbols): + (>3 to ≦10); Total No. of Resistant Viruses ([9]; {}): 1; Fold Change in EC50 Relative to WT HIV-1 [21]: 0.4 fold; Fold Change in EC50 Relative to WT HIV-1 [16]: 0.5 fold; Fold Change in EC50 Relative to WT HIV-1 [17]: 2 fold

Q: Which EC50 (84V90M [4]; [23]) does the source give for `Nc1n[nH]c2ccc(CN3C(=O)N(Cc4cccc(OCc5ccccc5)c4)C(Cc4ccccc4)C(O)C(O)C3Cc3ccccc3)cc12` (stereo not drawn) [m-OBn] here?
A: 2420 nM

Q: And the EC50 (WT [5])?
A: 218 nM

Q: And the IC50 (84V90M [7]; [24])?
A: 27 nM

Q: What does the source list for `Nc1n[nH]c2ccc(CN3C(=O)N(Cc4ccc(OCc5ccccc5)cc4)C(Cc4ccccc4)C(O)C(O)C3Cc3ccccc3)cc12` (stereo not drawn) [p-OBn]?
A: EC50 (84V90M [4]): 5310 nM; EC50 (WT [5]): 2120 nM; EC50 (30N82I88D; [22]): 1550 nM; IC50 (84V90M [7]; [24]): 781 nM

Q: What does the source list for `Nc1n[nH]c2ccc(CN3C(=O)N(Cc4ccc(OCP(=O)(O)O)cc4)C(Cc4ccccc4)C(O)C(O)C3Cc3ccccc3)cc12` (stereo not drawn) [p-OCH2PO3H2]?
A: EC50 (WT [5]): > 12000 nM; IC50 (84V90M [7]; [24]): 1660 nM

Q: For `O=C1N(Cc2ccccc2)[C@H](Cc2ccccc2)[C@H](O)[C@@H](O)[C@@H](Cc2ccccc2)N1Cc1ccc2[nH]ncc2c1` [reference compound], which EC50 (84V90M [4]; [23]) is on record?
A: 2310 nM

Q: And the EC50 (WT [5])?
A: 193 nM
